The values below come from ChEMBL document CHEMBL5236642, “Discovery of structural diverse reversible BTK inhibitors utilized to develop a novel in vivo CD69 and CD86 PK/PD mouse model” (Bioorg Med Chem Lett, 2023).

In brackets after ≈: the same amount, converted by molar mass.

Series [1] is described as follows: Solubility of the compound. In kind it is physicochemical.
Series [2] is described as follows: Volume of distribution at steady state in Sprague-Dawley rat at 1 mg/kg, iv. It is filed as ADME, organism-based. The settings on record: in vivo, read-out: Vdss.
Series [3] is described as follows: Half-life in Sprague-Dawley rat at 1 mg/kg, iv. In kind it is ADME, organism-based. Conditions: in vivo.
Series [4] is described as follows: Tmax in Sprague-Dawley rat at 5 mg/kg, po. It is filed as ADME, organism-based. Conditions: in vivo.
Series [5] is described as follows: Oral bioavailability in Sprague-Dawley rat at 5 mg/kg. In kind it is ADME, organism-based. Conditions: in vivo.
Series [6] can be described thus: Apparent permeability from apical to basolateral side in human CaCo-2/TC-7 cells. In kind it is ADME, cell-based, Caco2/TC7. Background: Passage across Caco-2 layers is used to estimate intestinal permeability.
The nature of series [7]: Half-life in rat at 2 mg/kg, iv. It is filed as ADME, organism-based. Conditions: in vivo.
Series [8] in a line: Clearance in rat at 2 mg/kg, iv. In kind it is ADME, organism-based. Conditions: in vivo.
The nature of series [9]: Oral bioavailability in rat at 2 mg/kg. In kind it is ADME, organism-based. The settings on record: in vivo.
The nature of series [10]: Tmax in rat at 2 mg/kg, po. In kind it is ADME, organism-based. The settings on record: in vivo.

`O=C(CNc1cc(Cl)cc(Cl)c1)NC1CCCN(c2ncnc3[nH]ccc23)C1` (stereo not given) came in with a solubility in [1] of 39 µg/mL (≈ 93 µM).

Consider `O=C(CNc1cc(Cl)cc(Cl)c1)N1CC[C@H]2CCN(c3ncnc4[nH]ccc34)[C@H]2C1`, for which the Vd in [2] stood at 1.1 L/kg. In series [3], this compound showed a half-life of 0.9 h. The Tmax in [4] was 0.87 h. For the same compound, in series [5], the bioavailability turned out to be 34%. In addition, the Papp A→B in [6] is 190 ×10⁻⁶ cm/s.

`C[C@@H]1[C@H](Nc2ncnc3[nH]ccc23)CCCN1C(=O)CNc1cc(Cl)cc(Cl)c1`: in [2], the Vd is 1.3 L/kg. The half-life in series [3] is 5.3 h. Moreover, the Tmax in [4] is 1.6 h. Further, the bioavailability in series [5] was determined as 23%. Further, in [6], the Papp A→B came to 150 ×10⁻⁶ cm/s.

In series [7], `O=C(CNc1cc(Cl)cc(Cl)c1)N1CCC[C@@H](Nc2ncnc3[nH]ccc23)C1` showed a half-life of 13.3 h. For the same compound, the CL in [8] worked out at 8 mg/mL/kg. Further, the bioavailability in series [9] stood at 98%. In addition, in series [10], the Tmax came to 2 h.

For orientation: solubility means the dissolved amount per volume that the medium holds. A higher solubility goes with a readily soluble substance. A word on the half-life: it is the time needed for the level to fall by half in the phase considered. As a reminder, the Tmax is the time from dosing to the highest level. Usually bioavailability stands for the share of a dose that reaches the circulation, judged against a reference dose that is usually intravenous. High values mean much systemic uptake, low ones little systemic uptake. A word on the Papp A→B: it is how fast a substance crosses the layer from the apical side.
